Data on twelve compounds can be found in ChEMBL document CHEMBL1145246, “Lactams as prostanoid receptor ligands. Part 4: 2-Piperidones as selective EP4 receptor agonists” (Bioorg Med Chem Lett, 2005).

In test [1] the target is Prostaglandin E2 receptor EP4 subtype (Homo sapiens, UniProt P35408). The test is described as follows: Effective concentration required for prostanoid EP4 receptor activity was determined. The class given is functional.
Test [2] is described as follows: Binding affinity for prostanoid EP3 receptor.
A short description of test [3]: Binding affinity for Prostanoid EP2 receptor.
Test [4] can be described thus: Binding affinity for prostanoid EP4 receptor.
Test [5] can be described thus: Binding affinity for prostanoid EP2 receptor.

Molecules are shown by their SMILES. A value given as a limit tells only on which side of the number the result lay.

Chain of Prostaglandin E2 receptor EP4 subtype (P35408 whole entry): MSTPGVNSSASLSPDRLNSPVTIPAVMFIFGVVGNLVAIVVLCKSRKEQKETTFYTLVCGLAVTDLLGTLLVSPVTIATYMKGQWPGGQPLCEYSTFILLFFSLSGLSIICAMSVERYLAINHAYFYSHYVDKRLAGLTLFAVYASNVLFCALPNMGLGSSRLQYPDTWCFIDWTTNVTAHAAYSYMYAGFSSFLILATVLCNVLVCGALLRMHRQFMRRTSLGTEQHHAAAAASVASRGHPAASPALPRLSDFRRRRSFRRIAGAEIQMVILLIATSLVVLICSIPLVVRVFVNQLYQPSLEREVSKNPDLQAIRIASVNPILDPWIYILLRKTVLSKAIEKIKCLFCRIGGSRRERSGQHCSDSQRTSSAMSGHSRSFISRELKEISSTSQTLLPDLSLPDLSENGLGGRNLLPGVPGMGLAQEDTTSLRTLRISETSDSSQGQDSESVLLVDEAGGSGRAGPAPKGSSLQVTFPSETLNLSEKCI

A word on the EC50: it is the concentration that produces a half-maximal response. Read a high EC50 as a need for much substance. The term Ki denotes a dissociation constant, usually derived from enzyme kinetics or from competition with a known ligand. Lower therefore signals tighter binding. Compound `O=C(O)CCCSCCN1C(=O)CCC[C@@H]1/C=C/[C@@H](O)CCC1CC1` had an EC50 in test [1] of 190 nM. The Ki in test [2] is over 10000 nM; in test [3], over 10000 nM; in test [4] it was 21 nM.
In turn, `CC(C)c1cc(C[C@H](O)/C=C/[C@H]2CCCC(=O)N2CCCCCCC(=O)O)ccc1O` showed an EC50 in test [1] of 1730 nM. The Ki in test [5] was over 10000 nM; in test [4], 130 nM.
Regarding `O=C(O)CCCSCCN1C(=O)CCC[C@@H]1CC[C@@H](O)c1ccc(C(F)(F)F)o1`, in test [1], the EC50 was 630 nM. Besides, the values for the Ki in test [2], in test [5] and in test [4] were over 10000 nM, over 10000 nM and 105 nM, respectively.
As to `CCCCC(C)(C)C(O)/C=C/[C@H]1CCCC(=O)N1CCSCCCC(=O)O` (some centres not stated), the EC50 in test [1] is 290 nM. Further, the Ki was over 10000 nM in test [5] and 86 nM in test [4].
Turning to `Cc1cc(O)ccc1-c1cccc(C(=O)CC[C@H]2CCCC(=O)N2CCCCCCC(=O)O)c1`, the EC50 in test [1] turned out to be 21000 nM.
In turn, `O=C(O)CCCSCCN1C(=O)CCC[C@@H]1/C=C/C(O)C1(c2ccccc2)CC1` (some centres not stated) returned an EC50 in test [1] of 260 nM. Moreover, the Ki in test [2] is over 10000 nM; in test [5], over 10000 nM; in test [4], 17 nM.
Compound `Cc1cc(Cl)ccc1-c1cccc([C@H](O)CC[C@H]2CCCC(=O)N2CCSCCCC(=O)O)c1` displayed an EC50 in test [1] of 6.1 nM. Moreover, the Ki in test [2] is over 10000 nM; in test [5], 1600 nM; in test [4], 4.8 nM.
The like results for `Cc1cc(C[C@H](O)/C=C/[C@H]2CCCC(=O)N2CCCCCCC(=O)O)ccc1O` were, in that order, 280 nM, over 10000 nM, over 10000 nM and 7.4 nM.
The like results for `COCc1cccc(C[C@H](O)/C=C/[C@H]2CCCC(=O)N2CCSCCCC(=O)O)c1` were, in that order, 44 nM, over 10000 nM, over 10000 nM and 22 nM.
For `O=C(O)CCCSCCN1C(=O)CCC[C@@H]1/C=C/[C@@H](O)CCC1CCC1`, in that order: 34 nM, over 10000 nM, 3800 nM and 7.3 nM.
`Cc1cc(O)ccc1-c1cccc([C@@H](O)CC[C@H]2CCCC(=O)N2CCCCCCC(=O)O)c1`: it took 110 nM to reach a half-maximal effect in test [1] (EC50). Moreover, the Ki in test [2] is over 10000 nM; in test [5] it was over 10000 nM; in test [4], 25 nM.
Take `COCc1cccc(C[C@H](O)/C=C/[C@H]2CCCC(=O)N2CCCCCCC(=O)O)c1`: in test [1], the EC50 stood at 44 nM. For the same compound, the Ki is over 10000 nM in test [5] and 8.7 nM in test [4].
